Measured values as given in BindingDB's records for doi:10.1016/j.ejmech.2021.113895 (University of Pisa, 2021).

Assay: Inhibition of recombinant full length human His-tagged PDK1 expressed in Baculovirus expression system in presence of ATP measured by […]

Structure (SMILES)	IC50 [nM]
Cc1ccc(C(=O)N[C@@H](C(=O)Nc2ccc3c(c2)/C(=C/c2cnc[nH]2)C(=O)N3)c2ccccc2)c(=O)n1Cc1ccc(F)c(F)c1	148
O=C(CCCNC(=O)c1cccn(Cc2ccc(F)c(F)c2)c1=O)Nc1ccc2c(c1)C(=Cc1cccs1)C(=O)N2 [US10351548, Compound DF9]	5880
Cc1c(Br)cc(C(=O)N[C@@H](C(=O)Nc2ccc3c(c2)/C(=C/c2cnc[nH]2)C(=O)N3)c2ccccc2)c(=O)n1Cc1ccc(F)c(F)c1	475
Cc1c(Br)cc(C(=O)NCC(=O)Nc2ccc3c(c2)/C(=C/c2cnc[nH]2)C(=O)N3)c(=O)n1Cc1ccc(F)c(F)c1	134
O=C(CCCNC(=O)c1cccn(Cc2ccc(F)c(F)c2)c1=O)Nc1ccc2c(c1)/C(=C/c1cnc[nH]1)C(=O)N2 [US10351548, Compound DF8]	245
O=C(CCNC(=O)c1cccn(Cc2ccc(F)c(F)c2)c1=O)Nc1ccc2c(c1)/C(=C/c1ncc[nH]1)C(=O)N2	455
Cc1ccc(C(=O)NCC(=O)Nc2ccc3c(c2)/C(=C/c2cnc[nH]2)C(=O)N3)c(=O)n1Cc1ccc(F)c(F)c1	103
O=C(CCNC(=O)c1cccn(Cc2ccc(F)c(F)c2)c1=O)Nc1ccc2c(c1)/C(=C/c1cnc[nH]1)C(=O)N2 [US10351548, Compound DD21]	103
O=C(CCNC(=O)c1cccn(Cc2ccc(F)c(F)c2)c1=O)Nc1ccc2c(c1)C(=Cc1cccs1)C(=O)N2	1340
